Where “and” joins values, the source holds several entries; their conditions need not be identical. Equal entries are not always repeated.
Tests used:
telomerase [1] = target: T1, telomerase (Homo sapiens, UniProt O14746); assay: Telomerase extension after insertion of modified dNTP (percent of product terminated at each template position); assay type: biochemical; design: made in house; anti-FLAG immunopurification, eluted with 3xFLAG peptide; settings: 50 μM each dATP, dTTP and dGTP or 6-thio-dGTP, Mean
T1 sequence (O14746 whole entry): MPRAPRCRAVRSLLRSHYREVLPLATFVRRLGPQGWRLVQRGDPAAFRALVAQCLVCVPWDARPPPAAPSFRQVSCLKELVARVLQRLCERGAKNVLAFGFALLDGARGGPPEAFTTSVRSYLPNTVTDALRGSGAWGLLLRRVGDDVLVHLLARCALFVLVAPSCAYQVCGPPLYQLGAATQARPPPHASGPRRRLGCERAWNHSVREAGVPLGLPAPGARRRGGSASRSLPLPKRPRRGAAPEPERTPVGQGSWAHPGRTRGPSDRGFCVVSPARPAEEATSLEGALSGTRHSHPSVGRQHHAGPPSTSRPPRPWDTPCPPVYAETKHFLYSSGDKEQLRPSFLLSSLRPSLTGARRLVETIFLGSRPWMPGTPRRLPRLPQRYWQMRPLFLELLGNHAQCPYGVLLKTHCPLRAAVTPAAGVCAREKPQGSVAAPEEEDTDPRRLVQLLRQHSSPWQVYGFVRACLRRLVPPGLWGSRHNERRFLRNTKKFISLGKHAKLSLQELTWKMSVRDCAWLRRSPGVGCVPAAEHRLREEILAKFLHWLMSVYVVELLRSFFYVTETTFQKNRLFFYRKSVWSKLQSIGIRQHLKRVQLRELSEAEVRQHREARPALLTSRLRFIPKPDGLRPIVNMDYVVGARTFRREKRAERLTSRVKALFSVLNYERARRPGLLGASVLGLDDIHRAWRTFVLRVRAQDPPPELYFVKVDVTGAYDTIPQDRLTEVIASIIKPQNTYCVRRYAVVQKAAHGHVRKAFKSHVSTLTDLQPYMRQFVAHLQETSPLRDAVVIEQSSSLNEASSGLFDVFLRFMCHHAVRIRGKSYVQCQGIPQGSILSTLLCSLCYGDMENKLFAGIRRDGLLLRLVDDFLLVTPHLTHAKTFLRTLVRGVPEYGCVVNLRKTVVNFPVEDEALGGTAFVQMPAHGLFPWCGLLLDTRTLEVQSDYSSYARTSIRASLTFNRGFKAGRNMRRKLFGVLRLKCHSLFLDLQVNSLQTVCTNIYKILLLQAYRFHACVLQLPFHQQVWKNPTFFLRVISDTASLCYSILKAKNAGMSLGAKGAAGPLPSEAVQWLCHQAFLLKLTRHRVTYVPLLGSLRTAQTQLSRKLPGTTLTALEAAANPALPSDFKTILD
Method: Direct telomerase assays were conducted with 5 nM ^32P-end labeled primer a and d Primer 3 (AGGGTT)3, b Primer 1 (TTAGGG)3, or c Primer 2 […]. […] Products were separated on denaturing gels. Letters on the y-axis of the graph indicate the template base; P indicates unextended 18-mer primer. Graphs represent percent of product terminated at each template position as a function of total products. Images are representative of, and data are the mean ± s.d. from, three independent experiments. Source data are provided as a Source Date file.
The reactions were started by the addition of 3 μl of immunopurified telomerase eluent, incubated at 37 °C for 1 h, then terminated with 2 μl of […] and heat inactivated at 65 °C for 20 min. An equal volume of loading buffer (94% formamide, 0.1× TBE, 0.1% bromophenol blue, 0.1% xylene cyanol) was added to the reaction eluent. The samples were heat denatured for 10 min at 100 °C and loaded onto a 14% denaturing acrylamide gel (7 M urea, 1× TBE) and electrophoresed for 90 min at constant 38 W. Samples were imaged using a Typhoon phosphorimager (GE Healthcare). Percent primer extension was calculated with ImageQuant TL 8.2 by measuring the intensity of each product band and dividing by the total radioactivity in the lane or total products, as indicated in the figure legends.

telomerase [2] = target: T1, telomerase; assay: Direct telomerase repeat addition assay with radiolabeled dNTPs: dNTP titration, repeat processivity R1/2; assay type: biochemical; design: made in house; anti-FLAG immunopurification, eluted with 3xFLAG peptide; settings: for ln(100-%LB): 0.5μM titrated dNTP; for Processivity R 1/2: (TTAGGG)3 primer, remaining three natural dNTPs at cellular concentration
Method: This preparation, termed super telomerase, has kinetic properties similar to endogenous telomerase (Supplementary Fig. 1)[29]–[31]. […] Repeat processivity was measured using the convention of calculating the number of repeats synthesized before half of the DNA substrates dissociate from telomerase[33] (Supplementary Fig. 2). 8-oxo-dGTP served as a control since it is an established telomerase chain terminator[12].
Fig. 2 Oxidized and therapeutic dNTPs inhibit telomerase processivity. […] The loading control (*) was a ^32P-end labeled 18-mer oligonucleotide. Numbers on the left indicate the number of added repeats; letters on the right indicate template residue. Images are representative of three independent experiments.
The telomerase assay was as described. […] Reactions containing the modified dNTPs (Trilink Biotechnologies) substituted for their natural dNTP analog are indicated in the figure legends. The reactions were started by the addition of 3 μl (~35 fmol) of immunopurified telomerase eluent, incubated at 37 °C for 1 h, then terminated with 2 μl of […] EDTA and heat inactivated at 65 °C for 20 min. ^32P-end labeled 18-mer loading control (8 fmol) was added to the terminated reactions before purification with an Illustra Microspin G-25 column (GE Healthcare). An equal volume of loading buffer (94% formamide, 0.1× TBE, 0.1% bromophenol blue, 0.1% xylene cyanol) was added to the reaction eluent from the G-25 spin column. The samples were heat denatured for 10 min at 100 °C and loaded onto a 14% denaturing polyacrylamide gel (7 M urea, 1× TBE) and electrophoresed for 90 min at constant 38 W. Samples were imaged using a Typhoon phosphorimager (GE Healthcare).
The processivity was calculated as described[40],[67]. Repeat processivity from the direct telomerase extension assays was calculated as R1/2 (equivalent to the half-time for decay in an exponential time course), which represents the median length of DNA product formed, expressed in terms of number of telomere repeats. First, the total volume counts for each product band extend by one or more telomere repeats were obtained using Image Quant TL. The volume counts were then normalized by dividing by the number of radiolabeled guanosines incorporated into the extended products based on the number of repeats added, termed corrected volume (corr vol). The “percent left behind” (%LB) was calculated for each product band by summing the counts for that product band and for every product band below (shorter products), divided by the total counts for the lane, and then multiplied by 100. The natural log of (100−%LB) was calculated and then plotted vs. repeat number for each product length. A linear regression line was fit to the data to determine the slope of the line. The R1/2 value was calculated by dividing −ln(2) by the slope of each fitted line (R1/2 = −ln(2)/slope).
Number of Repeats Number of Repeats Number of Repeats Number of Repeats
Supplementary Fig 2.Telomerase dNTP titrations and processivity calculations. Telomerase reactions were conducted with (TTAGGG) 3 primer 1 and cellular-concentration dNTPs except that the […]
The loading control (LC) was a 32P-end labeled 18-mer. Numbers on the left indicate the number of added repeats. (d) Processivity was calculated as R1/2 (see Methods). (e) The natural log of (100-%LB) was plotted vs repeat number. A straight line was fit to the data and the R1/2 was calculated by dividing –ln(2) by the slope of each line. Plots shown from one experiment. Images ( a-c) and plots ( e) are representative of, and data are mean + s. d. (d) from, three independent experiments. Source data are provided as a Source Data file.
(1 picture or pasted object on this page, not shown here)

`Nc1nc2c(ncn2C2CC(O)C(COP(=O)(O)OP(=O)(O)OP(=O)(O)O)O2)c(=O)[nH]1` (stereo not drawn) [dGTP] was tested, and the “Percent of Total Product” value (telomerase [1]; Fig 4b, Primer 1 (TTAGGG)3, terminated at rA3) was 7.65%, the “Percent of Total Product” value (telomerase [1]; Fig 4b, Primer 1, terminated at rA4) was 5.26% and the “Percent of Total Product” value (telomerase [1]; Fig 4b, Primer 1, terminated at rC1) was 0.66%. The “Percent of Total Product” value (telomerase [1]; Fig 4b, Primer 1, terminated at rC2) was 0.40%, the “Percent of Total Product” value (telomerase [1]; Fig 4b, Primer 1, terminated at rC6) was 4.56% and the “Percent of Total Product” value (telomerase [1]; Fig 4b, Primer 1, terminated at rU5) was 0.95%. The “Percent of Total Product” value (telomerase [1]; Fig 4c, Primer 2, terminated at rA3) was 5.15%, the “Percent of Total Product” value (telomerase [1]; Fig 4c, Primer 2, terminated at rA4) was 4.76% and the “Percent of Total Product” value (telomerase [1]; Fig 4c, Primer 2, terminated at rC1) was 7.39%. The “Percent of Total Product” value (telomerase [1]; Fig 4c, Primer 2, terminated at rC2) was 1.97%, the “Percent of Total Product” value (telomerase [1]; Fig 4c, Primer 2, terminated at rC6) was 6.22% and the “Percent of Total Product” value (telomerase [1]; Fig 4c, Primer 2, terminated at rU5) was 1.19%. The “Percent of Total Product” value (telomerase [1]; Fig 4d, Primer 3 (AGGGTT)3, terminated at rU5) was 4.50%, the “Percent of Total Product” value (telomerase [1]; Fig 4d, Primer 3, terminated at rA3) was 2.21% and the “Percent of Total Product” value (telomerase [1]; Fig 4d, Primer 3, terminated at rC1) was 1.49%. For the same molecule, the “Percent of Total Product” value (telomerase [1]; Fig 4d, Primer 3, terminated at rC2) was 0.72%, the “Percent of Total Product” value (telomerase [1]; Fig 4d, Primer 3, terminated at rC6) was 8.67% and the “ln(100-%LB)” value (telomerase [2]; telomere repeat 8) was -4.24. The “ln(100-%LB)” value (telomerase [2]; telomere repeat 9) was -4.48, the “ln(100-%LB)” value (telomerase [2]; telomere repeat 10) was -4.75 and the “ln(100-%LB)” value (telomerase [2]; telomere repeat 11) was -4.99. For the same molecule, the “Processivity R 1/2” value (telomerase [2]; indicated dNTP at 0.5 μM, Mean) was 1.69, the “Processivity R 1/2” value (telomerase [2]; indicated dNTP at 0.5 μM, n1-n3) was 1.96 and 1.27 and 1.84 and the “Processivity R 1/2” value (telomerase [2]; indicated dNTP at 1 μM, Mean) was 1.78. For the same molecule, the “Processivity R 1/2” value (telomerase [2]; indicated dNTP at 1 μM, n1-n3) was 1.97 and 1.53 and 1.85, the “Processivity R 1/2” value (telomerase [2]; indicated dNTP at 5 μM, Mean) was 2.39 and the “Processivity R 1/2” value (telomerase [2]; indicated dNTP at 24 μM, Mean) was 5.11.

Reference: PMC7576608, “Mechanisms of telomerase inhibition by oxidized and therapeutic dNTPs” (Nature Communications, 2020)
